Source: publication PMC7788351 (The Journal of Pharmacology and Experimental Therapeutics, 2021)
Counter-ions that a name gives are not always drawn.

Columns and labels:
humans [1] = conditions: ref Chait et al., 1985; cited from earlier work
α2C = target: T1, α2C (Homo sapiens, UniProt P18825); conditions: ref Schindler et al., 2019; cited from earlier work
T1 sequence (P18825 1-462): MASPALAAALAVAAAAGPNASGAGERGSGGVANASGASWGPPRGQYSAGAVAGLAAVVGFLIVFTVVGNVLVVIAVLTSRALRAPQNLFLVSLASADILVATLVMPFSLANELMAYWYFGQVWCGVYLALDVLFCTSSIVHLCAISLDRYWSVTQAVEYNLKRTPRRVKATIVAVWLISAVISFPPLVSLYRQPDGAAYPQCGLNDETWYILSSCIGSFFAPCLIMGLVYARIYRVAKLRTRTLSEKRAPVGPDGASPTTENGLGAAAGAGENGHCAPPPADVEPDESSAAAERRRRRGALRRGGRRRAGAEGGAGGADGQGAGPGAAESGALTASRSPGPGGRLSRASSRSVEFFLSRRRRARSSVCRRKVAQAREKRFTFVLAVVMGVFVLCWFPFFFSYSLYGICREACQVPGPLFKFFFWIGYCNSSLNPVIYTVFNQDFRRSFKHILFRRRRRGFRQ

humans [2] = conditions: ref Brauer and de Wit, 1996, Kelly et al., 2006, Harvanko et al., 2016; cited from earlier work
male Sprague-Dawley rats = experiment: In vivo biotelemetry; conditions: s.c., amphetamine 0.1–3 mg/kg, PEA analogs 1–10 mg/kg
α2A = target: T2, α2A (Homo sapiens, UniProt P08913); conditions: ref Schindler et al., 2019; cited from earlier work
T2 sequence (P08913 1-465): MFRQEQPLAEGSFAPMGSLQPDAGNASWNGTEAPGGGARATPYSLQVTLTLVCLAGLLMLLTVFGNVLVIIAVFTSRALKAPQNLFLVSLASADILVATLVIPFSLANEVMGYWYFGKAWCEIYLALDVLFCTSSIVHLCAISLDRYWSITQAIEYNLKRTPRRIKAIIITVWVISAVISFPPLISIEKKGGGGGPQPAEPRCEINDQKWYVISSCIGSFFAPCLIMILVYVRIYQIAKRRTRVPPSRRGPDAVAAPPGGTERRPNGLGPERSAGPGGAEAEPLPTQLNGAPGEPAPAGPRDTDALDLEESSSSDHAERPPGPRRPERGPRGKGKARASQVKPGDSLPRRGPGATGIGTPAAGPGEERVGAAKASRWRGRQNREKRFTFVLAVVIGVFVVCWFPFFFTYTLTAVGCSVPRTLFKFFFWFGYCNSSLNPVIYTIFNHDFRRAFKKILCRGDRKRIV

5-HT1A = target: T3, 5-HT1A (Homo sapiens, UniProt P08908); conditions: ref Schindler et al., 2019; cited from earlier work
T3 sequence (P08908 1-422): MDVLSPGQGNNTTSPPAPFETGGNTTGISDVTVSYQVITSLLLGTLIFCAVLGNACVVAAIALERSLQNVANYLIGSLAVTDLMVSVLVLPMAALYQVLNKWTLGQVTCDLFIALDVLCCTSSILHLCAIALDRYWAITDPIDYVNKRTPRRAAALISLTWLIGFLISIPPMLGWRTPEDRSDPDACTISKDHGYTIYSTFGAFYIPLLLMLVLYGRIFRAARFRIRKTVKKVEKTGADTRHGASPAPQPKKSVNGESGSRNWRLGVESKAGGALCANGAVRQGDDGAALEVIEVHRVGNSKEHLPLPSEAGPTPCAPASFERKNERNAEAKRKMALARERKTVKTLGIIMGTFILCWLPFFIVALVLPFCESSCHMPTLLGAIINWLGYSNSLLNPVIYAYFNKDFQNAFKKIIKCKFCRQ

5-HT2B = 5-HT2B (Homo sapiens, UniProt P41595); conditions: ref Schindler et al., 2019; cited from earlier work
5-HT2B, sequence (P41595 whole entry): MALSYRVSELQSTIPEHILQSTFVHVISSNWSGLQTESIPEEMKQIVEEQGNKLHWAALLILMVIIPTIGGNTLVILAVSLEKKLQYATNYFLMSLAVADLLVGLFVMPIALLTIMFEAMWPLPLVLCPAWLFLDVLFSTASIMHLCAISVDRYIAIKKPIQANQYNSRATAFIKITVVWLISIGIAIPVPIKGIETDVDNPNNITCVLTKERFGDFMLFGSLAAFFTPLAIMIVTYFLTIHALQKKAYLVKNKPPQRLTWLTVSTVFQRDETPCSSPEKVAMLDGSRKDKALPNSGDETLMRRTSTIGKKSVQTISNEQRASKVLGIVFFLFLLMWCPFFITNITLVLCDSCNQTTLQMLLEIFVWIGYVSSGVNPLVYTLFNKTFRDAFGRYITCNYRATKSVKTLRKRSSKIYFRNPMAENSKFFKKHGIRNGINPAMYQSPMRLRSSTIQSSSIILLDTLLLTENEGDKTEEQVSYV

rats = conditions: ref Schindler et al., 2019, cited from earlier work

Row | SMILES | threshold oral dose that can be discriminated (humans [1]) [mg] | Ki (α2C) [µM] | lowest oral doses that increase BP and HR (humans [2]) [mg] | effect on core body temperature (male Sprague-Dawley rats) | Ki (α2A) [µM] | Ki (5-HT1A) [µM] | Ki (5-HT2B) [µM] | effect on HR or activity (rats; at the doses tested) | reduction of potency to increase BP compared with amphetamine (rats)
1 | C[C@H](N)Cc1ccccc1 [Amphetamine, (S)-amphetamine sulfate] | 5 | 0.171 | 7.5 to 10 | did not significantly affect body temperature | 0.42 | 2.63 | 0.971 | – | –
2 | CC(CN)c1ccccc1 (stereo not drawn) [BMPEA, β-methylphenethylamine] | – | – | – | – | – | – | – | did not increase HR or activity | about 30 fold
